Laboratory results published in the supplement of paper PMC11451515.

Key:
Experiment in all cases: AUC of viability dose-response curve (% viability x log10 dose units); higher = less sensitive
Conditions in all cases: 48 h
[1] = test system: SEM cells
Summary of the method: (§1)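 In 1536-well plates, leukemia cells adapted to each medium (500 or 1000 cells/well) were exposed for 48 h at 37°C to library compounds in DMSO across 11 threefold doses, 47 μM down to 0.79 nM. Viability was read by CellTiter-Glo One luminescence and normalised per plate to DMSO and cell-free wells. A four-parameter log-logistic fit over log10 doses was integrated by trapezoidal rule. This yielded the area under the curve, with over-full-viability curves scaled and quality-control failures dropped.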

[2] = test system: P12-Ichikawa
Summary of the method: as §1

[3] = test system: NOMO1
Summary of the method: as §1

[4] = RPMI 5 mM glucose + 10% dialyzed FBS

| SMILES | AUC of viability dose-response curve ([1]; HPLM + 10% dialyzed FBS) | AUC of viability dose-response curve ([1]; RPMI 5 mM glucose + 10% FBS) | AUC of viability dose-response curve [1, 4] | AUC of viability dose-response curve ([2]; HPLM + 10% dialyzed FBS) | AUC of viability dose-response curve ([2]; RPMI 5 mM glucose + 10% FBS) | AUC of viability dose-response curve [2, 4] | AUC of viability dose-response curve ([3]; HPLM + 10% dialyzed FBS) | AUC of viability dose-response curve ([3]; RPMI 5 mM glucose + 10% FBS) | AUC of viability dose-response curve [3, 4] |
| --- | --- | --- | --- | --- | --- | --- | --- | --- | --- |
| Cc1n[nH]c2ccc(-c3cncc(OC[C@@H](N)Cc4ccccc4)c3)cc12 | 312 | 341 | 347 | 371 | 335 | 355 | 324 | 365 | 348 |
| CC(C)(C)[C@]1(O)C[C@@H]2OC(=O)C[C@@]23C(=O)O[C@@H]2OC(=O)[C@H](O)C213 (stereo partly drawn) | 471 | 444 | 436 | 447 | 458 | 452 | 452 | 436 | 452 |
